# Results: patent US10287269B2, “Pyrazolyl pyrimidinone compounds as PDE2 inhibitors” (Merck Sharp & Dohme Corp., priority 2015, dated 2019)
# Key:
# [1] = target: T1, human PDE2A1 (Homo sapiens, UniProt O00408); assay: PDE2 IMAP FP inhibition assay, human enzyme (PDE selectivity panel format); format: biochemical; conditions: Lab A; read-out: Human PDE2 Ki (nM) Lab A
# T1 construct: GST; purchased BPS Bioscience (San Diego, Calif.) 60020; host or cells: insect cells
# Description: Selectivity for PDE2, as compared to other PDE families, was assessed using the IMAP® technology. Human PDE10A2 enzyme was prepared from cytosolic fractions of transiently transfected HEK cells. All other PDE's were GST Tag human enzyme expressed in insect cells and were obtained from BPS Bioscience (San Diego, Calif.): PDE1A (Cat#60010), human PDE2A1 (Cat#60020), PDE3A (Cat#60030), PDE4A1A (Cat#60040), PDE5A1 (Cat#60050), PDE6C (Cat#60060), PDE7A (Cat#60070), PDE8A1 (Cat#60080), PDE9A2 (Cat#60090), PDE11A4 (Cat#60110).
# Assays for PDE 1 through 11 were performed in parallel at room temperature in 384-well microtiter plates with an incubation volume of 20.2 μL. Solutions of test compounds were prepared in DMSO and serially diluted with DMSO to yield 30 μL of each of ten solutions differing by 3-fold in concentration, at 32 serial dilutions per plate. […] A Labcyte POD 810 (Labcyte, Sunnyvale, Calif.) was used to dispense 200 nL from each well of the titration plate to make eleven copies of the assay plate for each titration, one copy for each PDE enzyme. A solution of each enzyme (dilution from aliquots, sufficient to produce 20% substrate conversion) and a separate solution of FAM-labeled cAMP or FAM-labeled cGMP from Molecular Devices (Sunnyvale, Calif., product # R7506 or cGMP#R7508), at a final concentration of 50 nM were made in the assay buffer (10 mM Tris HCl, pH 7.2, 10 mM MgCl2, 0.05% NaN3 0.01% Tween-20, and 1 mM DTT). Note that the substrate for PDE2 is 50 nM FAM cAMP containing 1000 nM of cGMP. The enzyme and the substrate were then added to the assay plates in two consecutive additions of 10 μL and then shaken to mix. The reaction was allowed to proceed at room temperature for 60 minutes. A binding solution was then made from the kit components, comprised of 80% Solution A, 20% Solution B and binding reagent at a volume of 1/600 the total binding solution. The enzymatic reaction was stopped by addition of 60 μL of the binding solution to each well of the assay plate. The plates were sealed and shaken for 10 seconds. The plates were incubated at room temperature for one hour, then the parallel and perpendicular fluorescence was measured using a Tecan Genios Pro plate reader (Tecan, Switzerland). The apparent inhibition constants for the compounds against all 11 PDE's was determined from the parallel and perpendicular fluorescent readings as described for PDE10 FP assay using the following apparent KM values for each enzyme and substrate combination: PDE1A (FAM cGMP) 70 nM, human PDE2A1 (FAM cAMP) 10,000 nM, PDE3A (FAM cAMP) 50 nM, PDE4A1A (FAM cAMP) 1500 nM, PDE5A1 (FAM cGMP) 400 nM, PDE6C (FAM cGMP) 700 nM, PDE7A (FAM cAMP) 150 nM, PDE8A1 (FAM cAMP) 50 nM, PDE9A2 (FAM cGMP) 60 nM, PDE10A2 (FAM cAMP) 150 nM, PDE11A4 (FAM cAMP) 1000 nM. The intrinsic PDE2 inhibitory activity of a compound which may be used in accordance with the present invention may be determined by these assays. […]
# [2] = reported in Brandon et al. 2007; cited from earlier work
# [3] = tested on: other PDE isoforms; conditions: reported in Brandon et al. 2007; cited from earlier work
# T1 sequence (O00408 1-920 isoform O00408-2): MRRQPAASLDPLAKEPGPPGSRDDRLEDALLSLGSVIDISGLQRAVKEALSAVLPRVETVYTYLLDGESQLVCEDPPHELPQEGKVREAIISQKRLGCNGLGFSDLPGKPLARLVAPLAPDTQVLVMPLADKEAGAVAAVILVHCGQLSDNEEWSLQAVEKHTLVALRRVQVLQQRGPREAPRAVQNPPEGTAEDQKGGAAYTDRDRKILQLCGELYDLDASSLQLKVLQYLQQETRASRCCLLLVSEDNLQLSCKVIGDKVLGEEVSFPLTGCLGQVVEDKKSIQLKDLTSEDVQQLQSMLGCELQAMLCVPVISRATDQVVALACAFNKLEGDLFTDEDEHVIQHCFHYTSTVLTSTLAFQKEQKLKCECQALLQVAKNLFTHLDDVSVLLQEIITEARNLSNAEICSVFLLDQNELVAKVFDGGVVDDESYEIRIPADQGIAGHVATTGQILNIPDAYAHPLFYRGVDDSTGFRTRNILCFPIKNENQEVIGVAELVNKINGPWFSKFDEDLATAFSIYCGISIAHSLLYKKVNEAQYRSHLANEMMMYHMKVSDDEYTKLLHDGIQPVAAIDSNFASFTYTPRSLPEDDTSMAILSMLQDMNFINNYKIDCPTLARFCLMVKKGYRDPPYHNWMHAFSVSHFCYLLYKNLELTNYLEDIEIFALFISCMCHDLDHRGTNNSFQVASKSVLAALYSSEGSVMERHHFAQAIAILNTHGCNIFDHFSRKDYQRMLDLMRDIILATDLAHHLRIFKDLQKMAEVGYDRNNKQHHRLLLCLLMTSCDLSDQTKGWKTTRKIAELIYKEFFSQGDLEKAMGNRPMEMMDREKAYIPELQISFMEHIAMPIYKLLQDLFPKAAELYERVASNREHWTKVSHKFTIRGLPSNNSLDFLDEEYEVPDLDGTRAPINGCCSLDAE
Structure (SMILES),Ki [1] [nM],brain penetration [2],potency at other PDE isoforms [3]
"Cc1nc(-c2cnn(C(CO)c3ccc(C(F)(F)F)cc3Cl)c2)cc(=O)[nH]1 (single isomer, unassigned) [Example 123, (S)- or (R)-6-(1-(1-(2-chloro-4-(trifluoromethyl)phenyl)-2-hydroxyethyl)-1H-pyrazol-4-yl)-2-methylpyrimidin-4(3H)-one]",6.5,–,–
COc1ccc(Cc2nn3c([C@@H](CCCc4ccccc4)[C@@H](C)O)nc(C)c3c(=O)[nH]2)cc1OC [Bay 60-7550],–,limited brain penetration,significant potency
"COC(=O)C(c1ccc(C(F)(F)F)cc1F)n1cc(-c2cc(=O)[nH]c(C)n2)cn1 (stereo not drawn) [Example 113, methyl 2-(2-fluoro-4-(trifluoromethyl)phenyl)-2-(4-(2-methyl-6-oxo-1,6-dihydropyrimidin-4-yl)-1H-pyrazol-1-yl)acetate]",1970,–,–
"CCc1ccc(C(C(=O)OC)n2cc(-c3cc(=O)[nH]c(C)n3)cn2)c(Cl)c1 (stereo not drawn) [Example 114, methyl 2-(2-chloro-4-ethylphenyl)-2-(4-(2-methyl-6-oxo-1,6-dihydropyrimidin-4-yl)-1H-pyrazol-1-yl)acetate]",1820,–,–
"CCc1ccc(C(C)(O)c2cnn(-c3cc(=O)[nH]c(C)n3)c2)c(Cl)c1 (stereo not drawn) [Example 119, 6-(4-(1-(2-chloro-4-ethylphenyl)-1-hydroxyethyl)-1H-pyrazol-1-yl)-2-methylpyrimidin-4(3H)-one]",16.7,–,–
